Measured values taken from US7906620B2, “Tumor associated antigen, peptides thereof, and use of same as anti-tumor vaccines” (Yeda Research and Development Co. Ltd., priority 2002, dated 2011).

How the values were obtained:
[1] = system: peptide loaded on labeled RMA-S/HHD; assay: Immunogenicity of peptides in HHD mice: vaccination with peptide-loaded RMA-S/HHD/B7.1, cytolytic assay on peptide-loaded targets; assay type: in vivo; details: for Score: immunogenic score: ratio of specific lysis, specific peptide vs tyrosinase peptide loaded on RMA-S/HHD, average of two experiments, positive above 125%; for antigenic / immunogenic in HHD mice: mouse, in vivo
Experimental: FIG. 4 is a graph of the results of in vitro cytolytic assays. Seven peptides are immunogenic. Peptides were loaded on RMA-S/HHD/B7.1, washed and irradiated. HHD mice were immunized three times as described in the materials and methods section in Example 1. In vitro cytolytic assays were performed on the relevant peptide as target and on an irrelevant peptide. The score was deduced from the ratio of the specific lysis that were obtained. The positive peptides (above 125%) are marked by arrows. Peptides 1-6, 3-5 and 3-7 are derived from “Human 1-8D gene”.
Vaccination. HHD mice were immunized i.p. 3 times at 7-day intervals with 2×10^6 irradiated (5000 rad) tumor cells, or irradiated peptide-loaded RMA-S/HHD/B7.1 transfectants. Spleens were removed on day 10 after the last immunization, and splenocytes were restimulated in vitro, either with irradiated tumor cells or with one third of the lymphocytes pre-pulsed with 100 μM synthetic peptides in opti-MEM (Life Technologies) for 2 hr at 37° C., 5% CO2. Restimulated lymphocytes were cultured in RPMI-HEPES medium containing 10% FCS, 2 mM glutamine, combined antibiotics, 1 mM sodium pyruvate, 25 mM HEPES, 5×10^−5M PME and 1% NEAA for 5 days. Viable cells (effectors) were separated by Lympholyte-M (Cedarlane, Hornby, Canada) gradient, resuspended and admixed at different ratios with 5,000 ^35S-methionine-labeled target cells. Cytolytic assays were carried out as described previously in Carmon et al., 2000. Extracts of tumor peptides or normal colon peptides were prepared from a pool of 6 post-surgical colon carcinoma specimens as described before Carmon et al., 2000.
The antigenic peptides were tested for their specific immunogenicity in HHD mice. HHD mice were vaccinated with RMA-S/HHD/B7.1 cells loaded with each of the peptides (listed in Table 3), their spleens were removed, and resensitized in vitro with synthetic peptides for four days. On the fifth day, a cytolytic assay was performed on two targets, either the peptide itself loaded on labeled RMA-S/HHD or the tyrosinase peptide as a negative control. The ratio of specific lysis between specific and tyrosinase peptides was defined as “immunogenic score”. This experiment was repeated twice and the average score of each of the antigenic peptides is specified (Table 3 and FIG. 4). The horizontal line in FIG. 4 represents the limit of 95% significance as defined by assuming normal distribution of scores.

T2 cells = assay: In vitro priming of human CTL with prostate peptides, cytolytic assay on peptide pulsed T2 cells; assay type: cell-based; details: three healthy and two CaP individuals
Experimental: FIGS. 16A-16D are graphs showing in vitro priming of human CTLs. PBMC of leukopheresis samples were isolated and in vitro CTL primed with peptide pulsed autologous DC. PBMC were supplemented with IL-7 and two days later IL-2 was added and renewed every three days. Additional two cycles of re-stimulation were done every 7 days over peptide pulsed monocytes. Seven days after the last stimulation cytolytic assay was performed using peptide pulsed or non-pulsed T2 cells as target. In FIG. 16A, PBMC derived from CaP individual (donor A) were primed and re-stimulated with STEAP-3 pulsed DC/monocytes. Target cells: relevant (STEAP-3) and non-relevant peptide (HIV-derived, PAP-3) pulsed T2 cells. In FIG. 16B, PBMC derived from healthy individual (donor B) were primed and restimulated with PAP-3 pulsed DC/monocytes. Target cells: relevant (PAP-3) and non-relevant peptide (HIV-derived, STEAP-3) pulsed T2 cells. PBMC derived from healthy individual (donor C) were primed and restimulated with either PAP-3 (C-1; FIG. 16C) or STEAP-3 (C-2; FIG. 16D) pulsed DC/monocytes. Relevant (PAP-3 or STEAP-3) peptide pulsed and non-pulsed T2 cells were used as targets.
FIGS. 17A-17C are graphs showing peptide specific CTL induced in human PBMC by PAP-3 (FIG. 17A), STEAP-3 (FIG. 17B), and PSGR-1 (FIG. 17C). PBMC from a healthy donor were stimulated by peptide pulsed DC as described and CTL activity was tested on homologous peptide pulsed T2 target cells (HLA-A2 lymphoma, TAP deficient).
Finally, peripheral blood of two healthy (donors B, C) and one CaP (donor A) individuals were tested for the existence of CTL precursors (FIGS. 16A-16D). Leukopheresis products of the donors were obtained from Barzilai Medical Center (Ashkelon, Israel) according to Declaration of Helsinki Principles. PBMC were isolated by centrifugation on Ficoll-Plaque Plus gradients (Amersham, Sweden). In vitro priming of CTL was done over autologous DC that were prepared from monocytes by IL-4 and GM-CSF treatment and maturated with a IL-1β, IL-6, TNF-α and PGE2 cocktail. DC were pulsed with synthetic peptides and PBMC were supplemented with IL-7. Two days later, IL-2 was added and renewed every three days. Two additional re-stimulations were done every 7 days over peptide pulsed monocytes. Seven days after the third stimulation, lymphocytes were harvested and a cytolytic assay was performed using relevant/non-relevant peptide pulsed or non-pulsed at all T2 cells.
(§1) When human PBMC are stimulated in vitro by PAP-3 and STEAP-3 peptides, the resulting CTL can lyse target cells (T2, EL4/HHD) pulsed with PAP-3, STEAP-3 or PSGR-1 and PSGR-6 peptides. (FIGS. 15 and 16). Here, these findings were expanded and peripheral blood of three healthy and two CaP individuals was tested for the existence of CTL precursors against PAP-3, STEAP-3 and PSGR-1 peptides. Leukopheresis products of the donors were obtained from Barzilai Medical Center (Ashkelon, Israel) according to Declaration of Helsinki Principles. PBMC were isolated by centrifugation on Ficoll-Plaque Plus gradients (Amersham, Sweden). In vitro priming of CTL was done over autologous DC that were prepared from monocytes by IL-4 and GM-CSF treatment and matured with a IL-1β, IL-6, TNF-α and PGE2 cocktail. DC were pulsed with synthetic peptides and PBMC were supplemented with IL-7. Two days later, IL-2 was added and renewed every three days. Two additional re-stimulations were done every 7 days over peptide pulsed monocytes. Seven days after the third stimulation, lymphocytes were harvested and a cytolytic assay was performed using relevant/non-relevant peptide pulsed or non-pulsed T2 cells (FIGS. 17A-17C) and LNCaP (high and low HLA expressors) cells as targets (FIGS. 18A-18E). […] Monitoring of HLA-A2-peptide specific CD8+ cells for PAP-3 and STEAP-3 was also performed by MHC-peptide tetramers (tetramers of recombinant HLA-A2.1-beta2 microglobulin single chain with peptides were prepared in collaboration with Dr Yoram Reiter, Technion, Haifa). […]

LNCaP = assay: Lysis of LNCaP tumor cells by human anti-peptide CTL; assay type: cell-based; details: LNCaP high and low HLA expressors as targets
From the text: FIGS. 18A-18E are graphs showing that human anti-peptide CTL from a healthy donor kills LNCaP tumor cells. PBMC from a healthy donor (FIGS. 18A-18C) or a CaP patient (FIGS. 18D-18E) were stimulated with PAP-3 (FIGS. 18A, 18D), STEAP-3 (FIGS. 18B, 18E) or PSGR-1 (FIG. 18C) as described. LNCaP/CRL1740 (LNCaP high in HLA-A2.1 expression), LNCaP/CRL10995 (LNCaP low in HLA-A2.1 expression) and PC3 (negative for HLA-A2.1) served as targets in CTL assays.
as §1

| Sequence | Score [1] | other results |
| --- | --- | --- |
| MLTINGKAI (listed as Homo sapiens) [Peptide 3-1, Transforming growth factor beta induced gene 343-351] | 147.1 | antigenic / immunogenic in HHD mice [1]: antigenic and immunogenic |
| ALPDETEVV (listed as Homo sapiens) [Peptide 2-1, Human osteonectin 23-31] | 115.0 | – |
| GQQSTVSDV (listed as Homo sapiens) [Peptide 1-5] | 125.0 | – |
| VLYDELKKV (listed as Homo sapiens) [Peptide 1-1, Human ADP/ATP translocase 253-261] | 121.7 | – |
| KIEDNNTLV (listed as Homo sapiens) [Peptide 2-3, Human ribosomal protein L23a mRNA 89-97] | 150.0 | antigenic / immunogenic in HHD mice [1]: antigenic and immunogenic |
| VQPQSPVAV (listed as Homo sapiens) [Peptide 1-3] | 112.0 | – |
| ILLVMGVDV (listed as Homo sapiens) [PSGR-1, PSGR start position 202] | – | activation of CTL precursors in PBMC derived from CaP patients and healthy donors (T2 cells): activated CTL precursors; lysis of tumor cells expressing endogenously processed proteins (LNCaP): lyse tumor cells |
| ALGFYPAEI (listed as Homo sapiens) [Peptide 3-3] | 93.6 | – |
| IPMGKSMLV (listed as Homo sapiens) [Peptide 2-2, Insulin like growth factor II 3-11] | 9.5 | – |
| DLQETLVKI (listed as Homo sapiens) [Peptide 3-6, Human chaperonin like protein 316-324] | 84.6 | – |
| TILTAVLLV (listed as Homo sapiens) [Peptide 1-10, Human defensin 6 5-13] | 97.5 | – |
| FELAAESDV (listed as Homo sapiens) [Peptide 1-4, Transforming growth factor beta induced gene 380-338] | 83.3 | – |
| TLQLSRAPV (listed as Homo sapiens) [Peptide 1-12, Human mRNA for dipeptidase 223-231] | 107.9 | – |
| IVDDITYNV (listed as Homo sapiens) [Peptide 1-11] | 126.8 | antigenic / immunogenic in HHD mice [1]: antigenic and immunogenic |
| SIAEFFSDI (listed as Homo sapiens) [Peptide 3-2, Human TB2 gene 105-113] | 143.2 | antigenic / immunogenic in HHD mice [1]: antigenic and immunogenic |
| LLVIIPVLV (listed as Homo sapiens) [Peptide 1-2, Human 1-8D gene from interferon inducible gene 119-127] | 108.3 | – |
| ALRGHSHFV (listed as Homo sapiens) [Peptide 1-8, Human MHC protein homologous to chicken B complex 58-66] | 106.7 | – |
| IQQYGHQEV (listed as Homo sapiens) [Peptide 1-7] | 94.6 | – |
| VIATNILLV (listed as Homo sapiens) [Peptide 1-9, Human chaperonin-like protein 368-346] | 69.7 | – |
| WVVYGVFSI (listed as Homo sapiens) [Peptide 3-4, Human TB2 gene 98-106] | 90.9 | – |
